Measurements published in patent publication US11058902B2, “Compositions and methods for treating disease associated with permeability of intestinal epithelium” (9 Meters Biopharma, Inc., priority 2017, dated 2021).
Where two headings read alike, the source gives them in different places.

Experiments:
[1] = test system: ischemic-injured porcine jejunum; test: Recovery of barrier function (transepithelial resistance, TER) in ischemic-injured porcine jejunum mucosa ex vivo in Ussing chambers; assay type: cell-based, Yorkshire-cross pigs; details: fragment added together with larazotide
From the text: Intestinal epithelial tight junction integrity is crucial to maintain an intact intestinal barrier against noxious luminal contents. […] Porcine mucosa injured by ischemia/reperfusion injury is abnormally permeable until interepithelial tight junctions have re-assembled.
(§1) Yorkshire-cross pigs 6-8-weeks-of-age were anesthetized, followed by midline laparotomy and creation of a series of 10 cm intestinal loops commencing proximal to the ileum by ligating the intestinal lumen. The local mesenteric vasculature was ligated to select treatment loops for 45-min, whereas other loops were left as non-ischemic controls. Loops were subsequently resected, and the mucosal tissues were stripped in oxygenated (95% O2/5% CO2) Ringers from the muscle layers in preparation for ex vivo incubation in Ussing chambers. Tissues were monitored by measuring transepithelial resistance (TER) for 240-min. At the end of a 240-min recovery period, tissues were taken for histology and immunofluorescence evaluation of tight junction proteins.

tight junction = test: Activity as tight junction regulators (larazotide fragments, alone or mixed with larazotide); details: for activity as tight junction regulators: fragment alone
From the text: In various embodiments, the methods of the invention comprise treating a subject with larazotide or derivative thereof. Larazotide is a peptide agent that promotes tight junction integrity in the gastrointestinal tract (GI). […] See US 2016/0022760, which is hereby incorporated by reference in its entirety. […] In accordance with this disclosure, it is believed that an aminopeptidase located within the brush borders of the lumen surface may create larazotide-derived fragments, including fragments missing N-terminal glycine residues.

celiac disease symptoms = details: clinical trials, cited from earlier work
occludin = details: tissues treated with larazotide
From the text: as §1

claudin 2 = details: tissues treated with larazotide
From the text: as §1

Row | Substance | effect of larazotide in the presence of the fragment [1] | activity as tight junction regulators (tight junction) | activity of full length larazotide when mixed with the two fragments (tight junction) | reducing celiac disease symptoms (celiac disease symptoms; higher doses (e.g., 1 mg and 2 mg doses)) | reducing celiac disease symptoms (celiac disease symptoms; lower doses (e.g., 0.5 mg dose)) | localization of the tight junction sealing protein occludin (occludin) | pore (leak)-forming tight junction protein claudin 2 (claudin 2)
1 | VLVQPG [larazotide-derived fragment missing N-terminal glycine residues] | blocked | inactive | completely abolished | – | – | – | –
2 | GVLVQPG [larazotide-derived fragment missing an N-terminal glycine residue] | blocked | inactive | completely abolished | – | – | – | –
3 | Gly Gly Val Leu Val Gin Pro Gly [larazotide] | – | – | – | attenuation of activity, or no activity at all | benefit at reducing celiac disease symptoms | increased localization | reductions
